Results reported in patent publication US11992536B2, “Dual-targeting compound and preparation method and application thereof” (YANTAI LANNACHENG BIOTECHNOLOGY CO., LTD., priority 2022, dated 2024).
pIC50: −log10 of the molar value.

Key:
[1] = system: HT1080-FAP tumor cells; assay: Cell uptake and blocking experiment in HT1080-FAP tumor cells; type: cell-based; details: blocking experiment
[2] = target: T1, FAP (Homo sapiens, UniProt Q12884); assay: Cell binding experiment in HT1080-FAP tumor cells (FIG. 11B); details: cell experiment of HT1080-FAP
T1 construct: expressed in transfected cells; host or cells: HT1080-FAP tumor cells
T1 sequence (Q12884 1-760): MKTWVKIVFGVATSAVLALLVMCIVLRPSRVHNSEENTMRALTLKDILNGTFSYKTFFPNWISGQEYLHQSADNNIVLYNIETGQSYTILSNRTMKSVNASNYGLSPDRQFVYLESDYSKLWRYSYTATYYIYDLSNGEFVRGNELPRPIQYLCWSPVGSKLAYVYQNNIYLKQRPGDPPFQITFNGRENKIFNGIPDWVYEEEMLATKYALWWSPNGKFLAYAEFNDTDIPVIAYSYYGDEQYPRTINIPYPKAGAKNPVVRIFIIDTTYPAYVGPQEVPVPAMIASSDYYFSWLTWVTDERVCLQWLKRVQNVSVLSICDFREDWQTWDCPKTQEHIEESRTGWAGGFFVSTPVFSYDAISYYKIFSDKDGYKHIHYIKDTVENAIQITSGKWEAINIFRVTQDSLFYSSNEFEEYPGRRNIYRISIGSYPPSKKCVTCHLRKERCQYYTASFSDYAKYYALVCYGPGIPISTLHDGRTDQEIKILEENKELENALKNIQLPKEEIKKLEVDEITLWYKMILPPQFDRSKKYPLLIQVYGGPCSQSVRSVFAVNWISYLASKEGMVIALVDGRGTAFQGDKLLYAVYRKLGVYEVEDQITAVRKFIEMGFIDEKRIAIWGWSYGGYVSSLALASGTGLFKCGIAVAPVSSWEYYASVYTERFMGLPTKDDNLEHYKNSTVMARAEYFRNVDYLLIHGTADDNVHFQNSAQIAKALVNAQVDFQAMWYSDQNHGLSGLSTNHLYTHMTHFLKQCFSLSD

pIC50 [2]	Compound	blocking of the cell uptake of 68Ga-FAPI-RGD [1]
–	C(RGDfK)	partially inhibited
–	N#C[C@@H]1CCCN1C(=O)CNC(=O)c1ccnc2ccc(OCCCN3CCN(C(=O)CN4CCN(CC(=O)O)CCN(CC(=O)O)CCN(CC(=O)O)CC4)CC3)cc12 [FAPI-02]	partially inhibited
7.95	N#C[C@@H]1CCCN1C(=O)CNC(=O)c1ccnc2ccc(OCCCN3CCN(C(=O)CCOCCOCCNC(=O)[C@H](CCC(=O)NCCOCCOCCC(=O)NCCCC[C@@H]4NC(=O)[C@@H](Cc5ccccc5)NC(=O)[C@H](CC(=O)O)NC(=O)CNC(=O)[C@H](CCCNC(=N)N)NC4=O)NC(=O)CN4CCN(CC(=O)O)CCN(CC(=O)O)CC4)CC3)cc12 [68Ga-FAPI-RGD, metal not drawn]	–
